Tested on: female cockroach (periplaneta fuliginosa)
Assay: Efficacy Test 1: Concentrate Dropping Test
Format: in vivo
Details: for Time until the subject insect stops moving (seconds) Average / Time until the subject insect stops moving (seconds) No. 1 / Time until the subject insect stops moving (seconds) No. 2 / Time until the subject insect stops moving (seconds) No. 3 / Time until the subject insect stops moving (seconds) No. 4 / Time until the subject insect stops moving (seconds) No. 5: 0.5 mL dropped between thorax and abdomen; for Time until the subject insect stops moving (seconds) Average: average of five tests; for Time until the subject insect stops moving (seconds) No. 1: repeat No. 1; for Time until the subject insect stops moving (seconds) No. 2: repeat No. 2; for Time until the subject insect stops moving (seconds) No. 3: repeat No. 3; for Time until the subject insect stops moving (seconds) No. 4: repeat No. 4; for Time until the subject insect stops moving (seconds) No. 5: repeat No. 5; for Lethality (%) after 24 hours: 0.5 mL dropped, 24 hours at 20° C., humidity 26%, five tests
Description: A plastic cup (capacity of 860 ml) that is open at the top was provided, and butter was spread on the upper part of the cup interior. Then, as a subject insect, one female cockroach (periplaneta fuliginosa) was gently placed on its back at the bottom of the plastic cup.
After confirming that the subject insect is lying on its back, 0.5 mL of the subject agent in Table 1 was dropped on to the insect between the thorax and the abdomen using a pipet, and the time (seconds) until the subject insect's movement completely stopped was measured.
Subsequently, the subject insect was transferred to another plastic cup and left in a room having a temperature of 20° C. and a humidity of 26%. The number of subject insects that died after 24 hours was counted. The test was repeated five times to obtain the lethality (%) based on the average of the results.

Structure (SMILES): FC(F)C(F)(F)C(F)(F)C(F)(F)C(F)(F)C(F)(F)F [Comparative Example 2, 1H-Tridecafluorohexane]
- Time until the subject insect stops moving (seconds) Average: 56.4 s
- Time until the subject insect stops moving (seconds) No. 1: 54 s
- Time until the subject insect stops moving (seconds) No. 2: 50 s
- Time until the subject insect stops moving (seconds) No. 3: 53 s
- Time until the subject insect stops moving (seconds) No. 4: 62 s
- Time until the subject insect stops moving (seconds) No. 5: 63 s
- Lethality (%) after 24 hours: 40%

Structure (SMILES): FC(F)(F)/C=C/Cl [Example 1, Trans-1-chloro-3,3,3-trifluoropropene]
- Time until the subject insect stops moving (seconds) Average: 1.4 s
- Time until the subject insect stops moving (seconds) No. 1: 2 s
- Time until the subject insect stops moving (seconds) No. 2: 1 s
- Time until the subject insect stops moving (seconds) No. 3: 1 s
- Time until the subject insect stops moving (seconds) No. 4: 1 s
- Time until the subject insect stops moving (seconds) No. 5: 2 s
- Lethality (%) after 24 hours: 80%

— patent publication US10306878B2, “Insect pest control agent” (priority 2013, dated 2019)
